In patent US12545895B2, “Protection of beta cells from immune attack” (Joslin Diabetes Center, priority 2017, dated 2026):

Experiments:
NIT-1 beta cells = experiment: Thapsigargin-induced ER stress, cell viability by MTT assay; assay type: cell-based, mouse; conditions: control NIT-1 cells, thapsigargin at different dosages, 3 days
Excerpt: NIT-1 beta cells were genetically modified at two genes—1) Rnls; and 2) Zbed3 with CRISPR/Cas9 and guide RNAs (gRNAs) targeting Rnls and Zbed3, respectively. The modified NIT-1 cells had reduced expression of renalase (Rnls mutants) or zinc finger BED domain-containing protein 3 (Zbed3 mutants). ER stress was induced by thapsigargin, which blocks the sarco/endoplasmic reticulum Ca^2+-ATPase (SERCA) pump on the ER, thus depleting calcium from the ER and leading to misfolding of proteins in ER and eventually ER stress induced cell death. All cells were treated with thapsigargin for 3 days, and cell viability was evaluated by a standard MTT assay (see Mosmann T, J Immunol Methods 65(1-2):55-63 (1983)). […] Thus, inhibiting expression of the Rnls or Zbed3 protected beta cells from cell death induced by ER stress. See FIG. 8 (Rnls) and FIG. 9 (Zbed3).

NIT-1 cells [1] = experiment: CRISPR/Cas9 whole-genome loss-of-function (LOF) screen: GeCKO library-A infected NIT-1 cells transplanted into NOD.scid mouse with diabetic NOD splenocytes, gRNA sequencing of surviving graft; assay type: in vivo; conditions: surviving NIT-1 graft of one NOD.scid mouse, ~60 days, severely hyperglycemic; mini-seq
Excerpt: A series of tools to run a CRISPR/Cas9 mediated whole-genome loss-of-function (LOF) screen were developed. The GeCKO V2 lentiviral pooled library was used that comprises guide RNAs (gRNAs) against every gene (Addgene, targeting >20,000 genes with 6 gRNAs/gene). This library was split into two sub-libraries (A and B), which each cover all targeted genes with 3 gRNAs/gene. These libraries cover the entire coding genome to potentially mutate every gene and also contain >1000 non-targeting gRNAs as internal negative controls. In the GeCKO library, Cas9 and gRNAs were incorporated into a single lentiviral vector to introduce these gene-targeting elements into beta cells by lentiviral infection.
A high-stringency LOF screen was done using a single mouse. In this model, 10^7 GeCKO library-A infected NIT-1 cells (multiplicity of infection (MOI)=0.3) were injected subcutaneously, and 10^7 diabetic NOD splenocytes were injected intravenously at the same time.
For sequencing, genomic DNA from explanted grafts was extracted with genome DNA midi prep kits, and the gRNA region was amplified from genomic DNA using established protocols.
Selection pressure (i.e., autoimmune attack) on transplanted NIT-1 cells was maximized by waiting until NOD.scid mice had become severely hyperglycemic (˜60 days, marked by the arrow) as shown in FIG. 4. Even after the blood glucose of one recipient NOD.scid mouse had reached approximately 500 mg/dL, approximately 50,000 cells from the remaining graft could be isolated. gRNAs were amplified from the genome DNA of the graft and surveyed by mini-seq (low-depth sequencing).
Since the GeCKO library (A library) only contain approximately 60,000 unique gRNAs, 10^6-10^7 sequencing reads was sufficient to cover the whole library and to achieve statistical significance. Typically, one high throughput sequencing reaction using the second generation Illumina system (e.g. NextSeq 500) can yield ˜150 millions of sequence reads, so multiple samples from different grafts were barcoded, mixed and sequenced together, thus greatly reducing sequencing costs.
The sequencing data was de-barcoded and then analyzed by bioinformatics analysis. Established analysis tools such as HiTSelect or MAGeCK were used for gRNA enrichment analysis. In sum, the ability to amplify, sequence and sub-clone gRNAs after in vivo selection allowed identification of genes whose suppression improved beta cell survival.
As expected with the high stringency selection, only 13 unique gRNAs that target 12 genes out of >60,000 gRNAs present in pre-implantation cells were identified. The number of times the gRNA was present in sequence (count), the frequency of the gRNA in the total reads, and the gene targeted by the gRNA are shown in Table 2. Two different gRNAs targeting Menl were found in the screen. The target genes in Table 2 encode for mouse SEQ ID Nos: 11-22 in Table 1, and the known human equivalents of these gene products are SEQ ID Nos: 1-10 in Table 1.

NIT-1 cells [2] = experiment: Co-culture of NIT-1 cells with NOD splenocytes, active caspase 3 staining; assay type: cell-based, mouse; conditions: 24 hours, 50 splenocytes:1 NIT-1 cell, NIT-1 lines stably expressing gRNA, FIG. 7
Experimental: FIGS. 6A-6C show are in vitro co-culture system for studying NIT-1 cell death by NOD splenocytes. […] The ratios represent ratios of splenocytes to NIT-1 cells. For example, 50:1 indicates 50-times more splenocytes than NIT-1 cells, while 0:1 indicates NIT-1 cells cultured without splenocytes. P<0.0001=****.
NIT-1 cells were incubated for 24 hours with splenocytes at a ratio of 50 splenocytes:1 NIT-1 cell. P<0.05=*; P<0.01=**, and P<0.001=***.
There is little cell death over 24 hours of NIT-1 cells not co-cultured with NOD splenocytes (0:1 ratio of splenocytes to NIT-1 cells in FIG. 6B), as evidenced by weak staining of active caspase-3. In contrast, NIT-1 cells co-cultured with a high ratio of NOD splenocytes (50:1 ratio of splenocytes to NIT-1 cells in FIG. 6B) show high cell death, as evidenced by strong caspase-3 activity. […] This model can be used to study whether inhibiting or suppressing expression of target genes blocks or inhibits the ability of NOD splenocytes to mediate NIT-1 cell death over time.

| Molecule | beta cell death (cell viability, MTT) (NIT-1 beta cells) | Count (number of times the gRNA was present in sequence) (NIT-1 cells [1]) | Frequency (% of total reads) (NIT-1 cells [1]) | NIT-1 cell death mediated by NOD splenocytes (activated caspase 3) (NIT-1 cells [2]) |
| --- | --- | --- | --- | --- |
| C/C=C(/C)C(=O)O[C@H]1C(C)=C2[C@H]([C@@H]1OC(=O)CCCCCCC)[C@@](C)(OC(C)=O)C[C@H](OC(=O)CCC)[C@@]1(O)[C@H]2OC(=O)[C@@]1(C)O [thapsigargin] | induced beta cell death | – | – | – |
| SEQ ID No: 23: gRNA targeting mouse Men1, sequence CACGCCCGAGCTGTCCAGTT (listed as DNA, chemistry not fully specified) | – | 4919 | 16.34 % of total reads | significantly decreased |
| SEQ ID No: 24: gRNA targeting mouse Hivep2, sequence TACGCACTCATACTGATGTT (listed as DNA, chemistry not fully specified) | – | 4073 | 13.53 % of total reads | – |
| SEQ ID No: 25: gRNA targeting mouse Rnls, sequence CTACTCCTCTCGCTATGCTC (listed as DNA, chemistry not fully specified) | – | 3810 | 12.66 % of total reads | – |
| SEQ ID No: 26: gRNA targeting mouse Lgsn, sequence TGCAACCGCGAACCCTTACC (listed as DNA, chemistry not fully specified) | – | 3252 | 10.80 % of total reads | – |
| SEQ ID No: 27: gRNA targeting mouse GCN1 (Gcn1l1), sequence GCTTGACACTGCATCGATAT (listed as DNA, chemistry not fully specified) | – | 3228 | 10.72 % of total reads | – |
| SEQ ID No: 28: gRNA targeting mouse Gm3604, sequence ACTTTCGTATACAGATACTG (listed as DNA, chemistry not fully specified) | – | 3226 | 10.72 % of total reads | – |
| SEQ ID No: 29: gRNA targeting mouse Plin4, sequence CTGCCTCCTTAGTTCCGACA (listed as DNA, chemistry not fully specified) | – | 2529 | 8.40 % of total reads | – |
| SEQ ID No: 30: gRNA targeting mouse Med11, sequence TTTCACGCTCGATATCCTCC (listed as DNA, chemistry not fully specified) | – | 1346 | 4.47 % of total reads | – |
| SEQ ID No: 31: gRNA targeting mouse Tgm6, sequence CATCGGTGGCTGGGTCCTCC (listed as DNA, chemistry not fully specified) | – | 1225 | 4.07 % of total reads | – |
| SEQ ID No: 32: gRNA targeting mouse Zbed3, sequence GCGCGAGGCGGCCCTAATGC (listed as DNA, chemistry not fully specified) | – | 1160 | 3.85 % of total reads | – |
| SEQ ID No: 33: second gRNA targeting mouse Men1, sequence GCTGTATGACCTCGGACATC (listed as DNA, chemistry not fully specified) | – | 702 | 2.33 % of total reads | significantly decreased |
| SEQ ID No: 34: gRNA targeting mouse Olfr911-ps1, sequence CTTCAAATGAGATCCACTGC (listed as DNA, chemistry not fully specified) | – | 503 | 1.67 % of total reads | – |
| SEQ ID No: 35: gRNA targeting mouse Grm2, sequence GCGGCATAACGCCACACCCG (listed as DNA, chemistry not fully specified) | – | 131 | 0.44 % of total reads | – |
